Values of other authors in patent US20090004105A1, “Molecular imaging of matrix metalloproteinase expression using labeled chlorotoxin” (priority 2007, published 2009).

Legend:
[1] = test system: tumors of neuroectodermal origin; conditions: immunohistochemical studies, Lyons et al. 2002
[2] = biological target: T1, MMP-2 presented on the surface of glioma cells (Homo sapiens, UniProt P08253); conditions: Deshane et al. 2003
T1 sequence (P08253 110-660): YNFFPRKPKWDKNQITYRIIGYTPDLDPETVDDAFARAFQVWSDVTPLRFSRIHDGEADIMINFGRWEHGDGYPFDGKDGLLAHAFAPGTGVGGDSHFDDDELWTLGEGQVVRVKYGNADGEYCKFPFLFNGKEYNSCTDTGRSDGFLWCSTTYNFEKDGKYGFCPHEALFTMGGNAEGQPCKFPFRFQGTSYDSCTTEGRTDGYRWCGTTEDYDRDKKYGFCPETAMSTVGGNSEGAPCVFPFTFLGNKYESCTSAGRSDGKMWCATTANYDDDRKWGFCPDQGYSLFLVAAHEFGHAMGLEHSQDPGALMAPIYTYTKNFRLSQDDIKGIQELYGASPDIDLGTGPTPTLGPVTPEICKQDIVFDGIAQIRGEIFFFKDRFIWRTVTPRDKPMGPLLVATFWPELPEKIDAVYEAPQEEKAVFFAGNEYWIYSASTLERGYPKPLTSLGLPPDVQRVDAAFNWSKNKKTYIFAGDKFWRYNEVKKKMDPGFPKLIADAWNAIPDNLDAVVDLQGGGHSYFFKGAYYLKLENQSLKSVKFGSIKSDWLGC

Q: With Chlorotoxin [Cltx] as the substance, how does the “binding to tumors of neuroectodermal origin” value [1] read?
A: specifically and selectively binds

Q: What about the MMP-2 inhibition [2] of the same substance?
A: specific MMP-2 inhibitor

Q: And the “binding affinity to MMP-2 on glioma cell surface” value [2]?
A: high affinity
